Test results as given in patent publication US20250339391A1, “METHODS FOR EFFECTIVE MANAGEMENT OF PAIN” (South Rampart Pharma, Inc., priority 2024, published 2025).
“Also recorded” adds a separate entry of the source. Read-outs that look alike come from different tables or passages of the source.

What was measured:
[1] = tested on: CD-1 male mice; assay: LPS fever induction antipyresis assay; assay type: in vivo, mouse; details: LPS 100 μg/kg ip, drug 75 mg/kg po, 2 h post drug
Description: Antipyresis experiments were carried out with n=60 CD-1 male mice weighing between 45-50 g. All mice were kept in a 12-h day/12-h night cycle with free access to food and water ad libitum. After habituating and acclimating the mice for a week, each mouse was briefly anesthetized for 1 min with 1% isoflurane and implanted subcutaneously a transmitter probe that records core body temperature—Implantable Programmable Temperature Transponder (IPTT-300) by Bio Medic Data Systems (BMDS), DE, USA. The mice were allowed to recover for at least one week from the surgery before any recordings were made and observed in their home cages prior to pyrogen challenge for inducing fever. Temperatures were recorded using the BMDS DAS-8027-IUS data reading system.
All mice were fasted overnight (15 h) with free access to water ad libitum prior to the pyrogen challenge. For the induction of fever, LPS from E. coli (100 μg/kg, 0111:B4) (MilliporeSigma, Billerica, MA, USA) was used. Mice received either LPS in 0.9% saline (sterile) (vehicle) or just 0.9% saline as an intraperitoneal (ip) injection.
Drug injection/concentration: All drugs and vehicle (10% DMSO: 10% labrasol:80% PEG400) were administered by oral gavage, PO dosing. Each dosing volume was ˜0.3-0.4 mL per mouse. […] We chose this dose to record antipyretic effect in a low dose that doesn't cause hypothermia in mice.

[2] = tested on: CD1 (young male and female) or C57BL/6 (aged male) mice; assay: Cold tail flick somatic pain assay; assay type: in vivo, mouse; details: for analgesia in cold tail-flick assay: 100 mg/kg, all cohorts; for tail withdrawal time (latency) to cold stimulation: 32 and 100 mg/kg PO, 4 °C water
Description: Half of the tail was immersed in ice-cold water maintained at 4° C. For the tail-flick assays, we used n=70 aged male mice, n=90 young male mice, and n=120 young female mice. Based on the availability of mice at the time of the experiments, different numbers of animals were assigned in different cohorts of experimental animals. Tail flick assay experiments were conducted on an open bench in a dedicated room at the LSUHSC New Orleans Neuroscience Center of Excellence vivarium. Mice were allowed to acclimate to the laboratory environment for 1 h prior to testing. To restrain the mice for the test, disposable plastic 50 mL screw-capped conical centrifuge tubes were cut at the tip to create a 0.5 cm opening to allow the mice to breathe freely. Another 0.5 cm opening was cut into the cap to allow access of the tail to the water bath. A 500 mL glass beaker was filled with 450 mL of ice-cold distilled water maintained at 4° C. with the addition of ice and determined with a glass thermometer. Mice were held over the opening of the water bath, and their tails submerged approximately halfway into the water. The nociceptive threshold was taken as the latency until the mice flicked their tail tip or removed the tail. The time from immersion to the attempted tail tip removal was measured to 1/10th of a sec with a digital laboratory timer. To minimize damage to the tail, a 60-sec cut-off was utilized. […] Injections were at doses of 32 mg/kg and 100 mg/kg. 30 min post-drug administration tail-flick/withdrawal latency was measured.

[3] = tested on: CD-1 male mice; details: for mortality by 72 hours: n=10
Description: CD-1 male mice obtained from Charles River Laboratories underwent a one-week acclimation period. They were housed under a 12-hour day/night cycle, with unrestricted access to food and water. Before experimentation, mice were fasted for 15 hours. […] Each treatment group consisted of 10 mice. Post-dosing, the mice were monitored at 6-hour intervals over 72 hours for signs of becoming moribund. An investigator blinded to the treatment groups conducted the moribund state assessment.

[4] = tested on: Sprague-Dawley rats; assay: CFA-induced inflammatory pain / Hargreaves thermal sensitivity assay; assay type: in vivo, rat; details: for analgesia, paw withdrawal latencies: 100 mg/kg
From the text: In these same cohorts of animals, we simultaneously measured their thermal nociception to hyperalgesia with the Hargreaves test using the plantar test apparatus (Ugo Basile 37570). In this experimental setup, the rodents are placed in plastic cages on top of a glass surface, and their hind paws are subjected to an infrared heat stimulus. One hind paw at a time is stimulated with the light source (noxious stimuli) until the animal retracts the paw from the glass surface because of the stimulus. Baseline withdrawal thresholds (latency) of both the right and left paws were recorded, and animals were assigned to different treatment groups so that each group had approximately equal withdrawal threshold averages in both paws. After baseline testing, treated animals received subcutaneous plantar injection (150 μl) of 50% CFA into the left hind paw, while control animals received a plantar injection (150 μl) of 0.9% NaCl into their left hind paw. CFA induces inflammation, resulting in a left hind paw that is hypersensitive to the thermal stimulus, while the right hind paw serves as a within-subject baseline for each animal. To obtain Hargreaves withdrawal latency recordings, each animal was placed in an individual plastic observation compartment on a glass platform, which provided access to the plantar surface of the hind paws from underneath. After acclimation to the environment for 30 min, thermal hypersensitivity was assessed by stimulating the mid-plantar area of each hind paw with a bright light source attached to the meter (Ugo Basile 37570) until animals withdrew the paw from the surface. The withdrawal threshold was defined as the average time (s) required for the rat to withdraw the stimulated paw. A brisk withdrawal of the paw (often followed by a sustained retraction and/or licking) was considered a positive response, but paw withdrawals due to locomotion or weight shifting were not counted. The Hargreaves studies were conducted with the plantar stimulation device that automatically registers the time (s) necessary to elicit paw withdrawal in order to eliminate bias in determining paw withdrawal thresholds. A cutoff of 20 s is pre-programmed so that the light source shuts off at that maximal period so as to not induce any burns on the plantar surface of the rodents. The Hargreaves test permits measurement of ipsilateral and contralateral heat thresholds, allowing each animal to serve as its own internal control in unilateral pain models. In addition, the Hargreaves test enables quantification of heat thresholds in unrestrained animals, reducing the likelihood of stress-induced responses.

[5] = 992 oral gavage (ApAP 150 mg/kg, SRP-001 402 mg/kg)
[6] = young male and young female rats

For `CCN(CC)C(=O)c1ccccc1S(=O)(=O)NCC(=O)Nc1ccc(O)cc1` [SRP-001, N,N-diethyl-2-[[2-(4-hydroxyanilino)-2-oxo-ethyl]sulfamoyl]benzamide], the antipyresis [1] was “comparable antipyresis”, the “analgesia in cold tail-flick assay” value [2] was “significant analgesia” and the “tail withdrawal time (latency) to cold stimulation” value [2] was “increased tail withdrawal time (latency)”. For the same molecule, the “equimolar (μmol/kg) ED50 / dose-response curve relative to ApAP” value ([2]; tail flick) was “comparable or improved ED50; also recorded: clear shift to the left”, the “mortality by 72 hours” value [3, 5] was “absence of mortality” and the “analgesia, paw withdrawal latencies” value ([4]; aged male rats) was “significant analgesia”. For the same molecule, the “antinociception in Hargreaves assay” value ([4]; young female and male rats and aged male rats) was “Antinociception was also confirmed” and the “analgesia, paw withdrawal latencies” value [4, 6] was “significant analgesia”.
For `CC(=O)Nc1ccc(O)cc1` [ApAP, acetaminophen], the antipyresis [1] was “comparable antipyresis”, the “analgesia in cold tail-flick assay” value [2] was “significant analgesia” and the “tail withdrawal time (latency) to cold stimulation” value [2] was “increased tail withdrawal time (latency)”. For the same molecule, the “mortality by 72 hours” value [3, 5] was “absence of mortality”, the “mortality by 72 hours” value ([3]; 1,984 oral gavage (ApAP 300 mg/kg)) was 1/10 and the “mortality by 72 hours” value ([3]; 3,969 oral gavage (ApAP 600 mg/kg)) was 3/10. The “mortality reached within 72 hours (Kaplan-Meier)” value ([3]; highest dose) was 70%, the “analgesia, paw withdrawal latencies” value ([4]; aged male rats) was “significant analgesia” and the “analgesia, paw withdrawal latencies” value [4, 6] was “significant analgesia”.
